# Legend:
# 129S6/SvEv mice [1] = experiment: Contextual fear conditioning (CFC) freezing; format: in vivo; conditions: for Freezing upon CFC re-exposure, (R,S)-ketamine versus saline: female mice, IP 10 mg/kg one week before CFC
# Procedure: Saline, (R,S)-ketamine (10 mg/kg), or Bay 55-9837 (2.5 or 5 mg/kg) was administered 1 week prior to 3-shock contextual fear conditioning (CFC) stress in female 129S6/SvEv mice. Five days later, mice were assayed for fear, behavioral despair, locomotion, exploratory behavior, and hyponcophagia.
# Male 129S6/SvEv mice were administered the same behavioral paradigm as described in Example 1. […] There was no effect of drug on immobility time during FST Day 1.
# Female 129S6/SvEv mice were given a single injection of saline, (R,S)-ketamine (10 mg/kg), or Bay 55-9837 (2.5 mg/kg) 5 minutes after 3-shock CFC training.
# Male 129S6/SvEv mice were administered the same behavioral paradigm as in Example 3. […] Similarly, in the NSF, Bay 55-9837, but not (R,S)-ketamine suppressed latency to feed in the OF when compared with saline controls.
# Female 129S6/SEv mice were administered a single injection of saline of Bay 55-9837 (2.5 mg/kg) and placed in Piezo sleep boxes. One week later, mice were administered 3-shock CFC training or context exposure and again placed back into Piezo sleep boxes. Five days later, mice were re-exposed to the training context. […] During CFC training, there was no effect of drug. […] There was a significant effect of drug and stress as well as a drug x stress interaction.
# (§1) Female 129S6/SvEv mice were administered an intracerebroventricular infusion of artificial cerebrospinal fluid, PACAP (6-38) (VPAC2 antagonist), or Bay 55-9837. Five minutes after, mice were given an IP injection of saline or (R,S)-ketamine (10 mg/kg). One week later, mice were administered 3-shock CFC training. Five days subsequently, mice were tested in CFC re-exposure and the FST. […] Upon CFC re-exposure, there was a significant group x drug interaction. […] In the PACAP (6-38) group, the prophylactic effect of (R,S)-ketamine was blocked.
# 129S6/SvEv mice [2] = experiment: Forced swim test (FST); format: in vivo; conditions: female mice
# Procedure: as §1, with “blocked. […]” for “blocked.”
Molecule,"Freezing upon CFC re-exposure, (R,S)-ketamine versus saline (129S6/SvEv mice [1]; PACAP(6-38) ICV group)","Freezing upon CFC re-exposure, (R,S)-ketamine versus saline (129S6/SvEv mice [1]; Vehicle ICV group)","Freezing during CFC re-exposure (129S6/SvEv mice [1]; male mice, same paradigm as Example 3)","Freezing during CFC training (129S6/SvEv mice [1]; male mice, same paradigm as Example 3 (single injection 5 minutes after 3-shock CFC training))","Behavioral despair on FST Day 2 (129S6/SvEv mice [2]; 1 week prior to 3-shock CFC stress, 10 mg/kg)","Immobility time on Day 2 of the FST (129S6/SvEv mice [2]; 5 minutes after 3-shock CFC training, 10 mg/kg)","Immobility on FST Day 2 compared with Vehicle/saline (129S6/SvEv mice [2]; ICV Vehicle then IP (R,S)-ketamine 10 mg/kg)","Prophylactic effect of (R,S)-ketamine on FST Day 2 (129S6/SvEv mice [2]; ICV PACAP (6-38) then IP (R,S)-ketamine 10 mg/kg)"
"CNC1(c2ccccc2Cl)CCCCC1=O (racemic) [(R,S)-ketamine]",not significantly different,not significantly different,did not significantly alter,did not significantly alter,reduced,significantly reduced,significantly lower,
PACAP (6-38),,,,,,,,blocked
